Assay results as given in ChEMBL document CHEMBL1240371, “Randomized, double-blind study of the safety, tolerability, and efficacy of tafenoquine versus mefloquine for malaria prophylaxis in nonimmune subjects” (Antimicrob Agents Chemother, 2010).

Key:
Details in all cases: in vivo, po
[1] = organism: Homo sapiens; experiment: Toxicity in […] assessed as incidence of gastroentertis at 250 mg, perorally for 3 days and weekly 250 mg, perorally maintenance dose for 26 +/- 4 weeks; assay type: organism-based
[2] = organism: Homo sapiens; experiment: Toxicity in […] assessed as incidence of abnormal retinal fluorescein at 250 mg, perorally for 3 days and weekly 250 mg, perorally maintenance dose for 26 +/- 4 weeks; assay type: organism-based
[3] = organism: Homo sapiens; experiment: Toxicity in […] assessed as incidence of vertigo at 250 mg, perorally for 3 days and weekly 250 mg, perorally maintenance dose for 26 +/- 4 weeks; assay type: organism-based
[4] = organism: Homo sapiens; experiment: Toxicity in […] assessed as incidence of rash at 250 mg, perorally for 3 days and weekly 250 mg, perorally maintenance dose for 26 +/- 4 weeks; assay type: organism-based
[5] = organism: Homo sapiens; experiment: Toxicity in […] assessed as incidence of fungal dermatitis at 250 mg, perorally for 3 days and weekly 250 mg, perorally maintenance dose for 26 +/- 4 weeks; assay type: organism-based
[6] = organism: Homo sapiens; experiment: Toxicity in […] assessed as incidence of diarrhea at 250 mg, perorally for 3 days and weekly 250 mg, perorally maintenance dose for 26 +/- 4 weeks; assay type: organism-based
[7] = organism: Homo sapiens; experiment: Toxicity in […] assessed as incidence of headache at 250 mg, perorally for 3 days and weekly 250 mg, perorally maintenance dose for 26 +/- 4 weeks; assay type: organism-based
[8] = organism: Homo sapiens; experiment: Toxicity in […] assessed as incidence of arthralgia at 250 mg, perorally for 3 days and weekly 250 mg, perorally maintenance dose for 26 +/- 4 weeks; assay type: organism-based
[9] = organism: Homo sapiens; experiment: Toxicity in […] assessed as incidence of vomiting at 250 mg, perorally for 3 days and weekly 250 mg, perorally maintenance dose for 26 +/- 4 weeks; assay type: organism-based
[10] = organism: Homo sapiens; experiment: Toxicity in […] assessed as incidence of insomnia at 250 mg, perorally for 3 days and weekly 250 mg, perorally maintenance dose for 26 +/- 4 weeks; assay type: organism-based
[11] = organism: Homo sapiens; experiment: Toxicity in […] assessed as incidence of abnormal coordination at 250 mg, perorally for 3 days and weekly 250 mg, perorally maintenance dose for 26 +/- 4 weeks; assay type: organism-based
[12] = organism: Homo sapiens; experiment: Toxicity in […] assessed as incidence of somnolence at 250 mg, perorally for 3 days and weekly 250 mg, perorally maintenance dose for 26 +/- 4 weeks; assay type: organism-based
[13] = organism: Homo sapiens; experiment: Toxicity in […] assessed as incidence of pigmentation of retinal epithelium at 250 mg, perorally for 3 days and weekly 250 mg, perorally maintenance dose for 26 +/- 4 weeks; assay type: organism-based
[14] = organism: Homo sapiens; experiment: Toxicity in […] assessed as incidence of increase in bilirubin at 250 mg, perorally for 3 days and weekly 250 mg, perorally maintenance dose for 26 +/- 4 weeks; assay type: organism-based
[15] = organism: Homo sapiens; experiment: Toxicity in […] assessed as incidence of dizziness at 250 mg, perorally for 3 days and weekly 250 mg, perorally maintenance dose for 26 +/- 4 weeks; assay type: organism-based
[16] = organism: Homo sapiens; experiment: Toxicity in […] assessed as incidence of abdominal pain at 250 mg, perorally for 3 days and weekly 250 mg, perorally maintenance dose for 26 +/- 4 weeks; assay type: organism-based, Abdomen
[17] = organism: Homo sapiens; experiment: Toxicity in […] assessed as incidence of phayngitis at 250 mg, perorally for 3 days and weekly 250 mg, perorally maintenance dose for 26 +/- 4 weeks; assay type: organism-based
[18] = organism: Homo sapiens; experiment: Toxicity in […] assessed as incidence of upper respiratory tract infection at 250 mg, perorally for 3 days and weekly 250 mg, perorally maintenance dose for 26 +/- 4 weeks; assay type: organism-based
[19] = organism: Homo sapiens; experiment: Toxicity in […] assessed as incidence of back pain at 250 mg, perorally for 3 days and weekly 250 mg, perorally maintenance dose for 26 +/- 4 weeks; assay type: organism-based
[20] = organism: Homo sapiens; experiment: Toxicity in […] assessed as incidence of musculoskeletal injury at 250 mg, perorally for 3 days and weekly 250 mg, perorally maintenance dose for 26 +/- 4 weeks; assay type: organism-based
[21] = organism: Homo sapiens; experiment: Toxicity in […] assessed as incidence of abnormal dreams at 250 mg, perorally for 3 days and weekly 250 mg, perorally maintenance dose for 26 +/- 4 weeks; assay type: organism-based
[22] = organism: Homo sapiens; experiment: Toxicity in […] assessed as incidence of increase in serum creatinine at 250 mg, perorally for 3 days and weekly 250 mg, perorally maintenance dose for 26 +/- 4 weeks; assay type: organism-based
[23] = organism: Homo sapiens; experiment: Toxicity in […] assessed as incidence of depression at 250 mg, perorally for 3 days and weekly 250 mg, perorally maintenance dose for 26 +/- 4 weeks; assay type: organism-based
[24] = organism: Homo sapiens; experiment: Toxicity in […] assessed as incidence of nausea at 250 mg, perorally for 3 days and weekly 250 mg, perorally maintenance dose for 26 +/- 4 weeks; assay type: organism-based
[25] = organism: Homo sapiens; experiment: Toxicity in […] assessed as incidence of viral infection at 250 mg, perorally for 3 days and weekly 250 mg, perorally maintenance dose for 26 +/- 4 weeks; assay type: organism-based
[26] = organism: Homo sapiens; experiment: Toxicity in […] assessed as incidence of diarrhea at 200 mg, perorally for 3 days and weekly 200 mg, perorally maintenance dose for 26 +/- 4 weeks; assay type: organism-based
[27] = organism: Homo sapiens; experiment: Toxicity in […] assessed as incidence of increase in bilirubin at 200 mg, perorally for 3 days and weekly 200 mg, perorally maintenance dose for 26 +/- 4 weeks; assay type: organism-based
[28] = organism: Homo sapiens; experiment: Toxicity in […] assessed as incidence of decrease in hematocrit at 250 mg, perorally for 3 days and weekly 250 mg, perorally maintenance dose for 26 +/- 4 weeks relative to baseline; assay type: organism-based; set-up: scale not given: the % may be the effect or the level left
[29] = organism: Homo sapiens; experiment: Toxicity in […] assessed as incidence of anxiety at 200 mg, perorally for 3 days and weekly 200 mg, perorally maintenance dose for 26 +/- 4 weeks; assay type: organism-based
[30] = organism: Homo sapiens; experiment: Toxicity in […] assessed as incidence of increase in serum creatinine at 200 mg, perorally for 3 days and weekly 200 mg, perorally maintenance dose for 26 +/- 4 weeks; assay type: organism-based
[31] = organism: Homo sapiens; experiment: Toxicity in […] assessed as incidence of rash at 200 mg, perorally for 3 days and weekly 200 mg, perorally maintenance dose for 26 +/- 4 weeks; assay type: organism-based
[32] = organism: Homo sapiens; experiment: Toxicity in […] assessed as incidence of pigmentation of retinal epithelium at 200 mg, perorally for 3 days and weekly 200 mg, perorally maintenance dose for 26 +/- 4 weeks; assay type: organism-based
[33] = organism: Homo sapiens; experiment: Toxicity in […] assessed as incidence of abdominal pain at 200 mg, perorally for 3 days and weekly 200 mg, perorally maintenance dose for 26 +/- 4 weeks; assay type: organism-based, Abdomen
[34] = organism: Homo sapiens; experiment: Toxicity in […] assessed as incidence of abnormal coordination at 200 mg, perorally for 3 days and weekly 200 mg, perorally maintenance dose for 26 +/- 4 weeks; assay type: organism-based
[35] = organism: Homo sapiens; experiment: Toxicity in […] assessed as incidence of somnolence at 200 mg, perorally for 3 days and weekly 200 mg, perorally maintenance dose for 26 +/- 4 weeks; assay type: organism-based
[36] = organism: Homo sapiens; experiment: Toxicity in […] assessed as incidence of dizziness at 200 mg, perorally for 3 days and weekly 200 mg, perorally maintenance dose for 26 +/- 4 weeks; assay type: organism-based
[37] = organism: Homo sapiens; experiment: Toxicity in […] assessed as incidence of depression at 200 mg, perorally for 3 days and weekly 200 mg, perorally maintenance dose for 26 +/- 4 weeks; assay type: organism-based
[38] = organism: Homo sapiens; experiment: Toxicity in […] assessed as incidence of fungal dermatitis at 200 mg, perorally for 3 days and weekly 200 mg, perorally maintenance dose for 26 +/- 4 weeks; assay type: organism-based
[39] = organism: Homo sapiens; experiment: Toxicity in […] assessed as incidence of tremor at 200 mg, perorally for 3 days and weekly 200 mg, perorally maintenance dose for 26 +/- 4 weeks; assay type: organism-based
[40] = organism: Homo sapiens; experiment: Toxicity in […] assessed as incidence of nausea at 200 mg, perorally for 3 days and weekly 200 mg, perorally maintenance dose for 26 +/- 4 weeks; assay type: organism-based
[41] = organism: Homo sapiens; experiment: Toxicity in […] assessed as incidence of phayngitis at 200 mg, perorally for 3 days and weekly 200 mg, perorally maintenance dose for 26 +/- 4 weeks; assay type: organism-based
[42] = organism: Homo sapiens; experiment: Toxicity in […] assessed as incidence of amnesia at 200 mg, perorally for 3 days and weekly 200 mg, perorally maintenance dose for 26 +/- 4 weeks; assay type: organism-based
[43] = organism: Homo sapiens; experiment: Toxicity in […] assessed as incidence of vomiting at 200 mg, perorally for 3 days and weekly 200 mg, perorally maintenance dose for 26 +/- 4 weeks; assay type: organism-based
[44] = organism: Homo sapiens; experiment: Toxicity in […] assessed as incidence of paroniria at 200 mg, perorally for 3 days and weekly 200 mg, perorally maintenance dose for 26 +/- 4 weeks; assay type: organism-based
[45] = organism: Homo sapiens; experiment: Toxicity in […] assessed as incidence of vortex keratopathy at 200 mg, perorally for 3 days and weekly 200 mg, perorally maintenance dose for 26 +/- 4 weeks; assay type: organism-based
[46] = organism: Homo sapiens; experiment: Toxicity in […] assessed as incidence of agitation at 200 mg, perorally for 3 days and weekly 200 mg, perorally maintenance dose for 26 +/- 4 weeks; assay type: organism-based
[47] = organism: Homo sapiens; experiment: Toxicity in […] assessed as incidence of arthralgia at 200 mg, perorally for 3 days and weekly 200 mg, perorally maintenance dose for 26 +/- 4 weeks; assay type: organism-based
[48] = organism: Homo sapiens; experiment: Toxicity in […] assessed as incidence of abnormal retinal fluorescein at 200 mg, perorally for 3 days and weekly 200 mg, perorally maintenance dose for 26 +/- 4 weeks; assay type: organism-based
[49] = organism: Homo sapiens; experiment: Toxicity in […] assessed as incidence of insomnia at 200 mg, perorally for 3 days and weekly 200 mg, perorally maintenance dose for 26 +/- 4 weeks; assay type: organism-based
[50] = organism: Homo sapiens; experiment: Toxicity in […] assessed as incidence of headache at 200 mg, perorally for 3 days and weekly 200 mg, perorally maintenance dose for 26 +/- 4 weeks; assay type: organism-based
[51] = organism: Homo sapiens; experiment: Toxicity in […] assessed as incidence of vertigo at 200 mg, perorally for 3 days and weekly 200 mg, perorally maintenance dose for 26 +/- 4 weeks; assay type: organism-based
[52] = organism: Homo sapiens; experiment: Toxicity in […] assessed as incidence of decrease in hematocrit at 200 mg, perorally for 3 days and weekly 200 mg, perorally maintenance dose for 26 +/- 4 weeks; assay type: organism-based; set-up: scale not given: the % may be the effect or the level left
[53] = organism: Homo sapiens; experiment: Toxicity in […] assessed as incidence of euphoria at 200 mg, perorally for 3 days and weekly 200 mg, perorally maintenance dose for 26 +/- 4 weeks; assay type: organism-based
[54] = organism: Homo sapiens; experiment: Toxicity in […] assessed as incidence of back pain at 200 mg, perorally for 3 days and weekly 200 mg, perorally maintenance dose for 26 +/- 4 weeks; assay type: organism-based
[55] = organism: Homo sapiens; experiment: Toxicity in […] assessed as incidence of viral infection at 200 mg, perorally for 3 days and weekly 200 mg, perorally maintenance dose for 26 +/- 4 weeks; assay type: organism-based
[56] = organism: Homo sapiens; experiment: Toxicity in […] assessed as incidence of abnormal dreams at 200 mg, perorally for 3 days and weekly 200 mg, perorally maintenance dose for 26 +/- 4 weeks; assay type: organism-based

OC(c1cc(C(F)(F)F)nc2c(C(F)(F)F)cccc12)C1CCCCN1 (stereo unspecified) [MEFLOQUINE] showed an Activity [1] of 51%, an Activity [2] of 100% and an Activity [3] of 8%. For the same compound, the Activity [4] was 21%, the Activity [5] was 8% and the Activity [6] was 30%. The Activity [7] was 20%, the Activity [8] was 18% and the Activity [9] was 8%. The Activity [10] was 3%, the Activity [11] was 1% and the Activity [12] was 6%. For the same compound, the Activity [13] was 23.5%, the Activity [14] was 0.6% and the Activity [15] was 2%. It also gave an Activity [16] of 13%, an Activity [17] of 3% and an Activity [18] of 32%. For the same compound, the Activity [19] was 26%, the Activity [20] was 49% and the Activity [21] was 2%. For the same compound, the Activity [22] was 10%, the Activity [23] was 1% and the Activity [24] was 13%. For the same compound, the Activity [25] was 13%.

With COc1cc(C)c2c(Oc3cccc(C(F)(F)F)c3)c(OC)cc(NC(C)CCCN)c2n1 (stereo unspecified) [TAFENOQUINE] the Activity [26] was 77%, the Activity [27] was 2.6% and the Activity [28] was 15%. The Activity [29] was 2%, the Activity [30] was 19% and the Activity [31] was 70%. For the same compound, the Activity [32] was 39.1%, the Activity [33] was 24% and the Activity [34] was 2%. It also gave an Activity [35] of 12%, an Activity [36] of 5% and an Activity [37] of 1%. It also gave an Activity [38] of 44%, an Activity [39] of 2% and an Activity [40] of 28%. The Activity [41] was 25%, the Activity [42] was 1% and the Activity [43] was 21%. It also gave an Activity [44] of 1%, an Activity [45] of 93.2% and an Activity [46] of 2%. It also gave an Activity [47] of 55%, an Activity [48] of 28.6% and an Activity [49] of 5%. For the same compound, the Activity [50] was 61%, the Activity [51] was 22% and the Activity [52] was 20%. The Activity [53] was 2%, the Activity [54] was 74% and the Activity [55] was 39%. For the same compound, the Activity [56] was 7%.
